Experimental data reported in paper PMC9924185, “A validated LC–MS/MS method for clinical pharmacokinetics and presumptive phase II metabolic pathways following oral administration of Andrographis paniculata extract” (Scientific Reports, 2023).
Read-outs that look alike come from different tables or passages of the source. Each block holds one compound with its values, some of them ahead of it.

What was measured:
[1] = Metabolite profiling in urine by LC-QTOF/MS after oral administration of A. paniculata extract; assay type: in vivo; details: tentative metabolite in human urine (pooled 0–4 and 4–8 h) after single oral A. paniculata extract
Description: For qualitative determination of untargeted compounds, liquid chromatography-quadrupole time-of-flight mass spectrometry (LC-QTOF/MS) was performed on an Agilent 6540 QTOF/MS (Agilent Technologies, USA) equipped with an Agilent 1260 infinity liquid chromatography system. The stationary phase of the chromatographic separation was performed on a 150 mm × 4.6 mm, 5.0 µm Phenomenex Luna C18 column (Phenomenex, USA) using a mobile phase consisting of 0.1% formic acid in water pH 2.5–2.7 (A) and 100% acetonitrile (B) at a constant flow rate of 0.5 mL/min with a controlled oven temperature at 35 °C, (and 10 µL) of injection volume. The elution gradient was started with 30%B, and was increased to 90%B within 20 min, then maintained at 95%B during 25–30 min followed by a post-run for 5 min.
Mass spectrometric analysis was performed using an ESI negative and positive modes with varying collision energies (10, 20, and 40 V) over a mass range of m/z 100–1200 Da. The MS conditions were as follows: capillary voltage = 3500 V; flow rate of drying gas (N2) = 10.0 L/min, 350 °C; nebulizer pressure = 30 psi, fragmentation voltage = 250 V for negative mode and 100 V for positive mode. All acquisition data were analyzed using MassHunter Software B.07.01 and MassHunter Qualitative Analysis Software B.08.00 (Agilent Technologies, USA). To support the metabolite identification, the MS chromatograms were determined by comparing the fragmentation patterns of metabolites and library searches in Mass Hunter, and Human Metabolome Database (HMDB). For sample preparation, pooled urine samples at 0–4 and 4–8 h were prepared using the same extraction process described in the pharmacokinetic study.

[2] = Cumulative urine excretion after single oral administration of A. paniculata extract; assay type: in vivo, human
Description: (§1) An aliquot of 50 µL of plasma or urine was placed in a 1.5 mL of polypropylene centrifuge micro-tube. Protein was removed from the sample by adding 200 µL of methanol (containing 50.00 ng/mL of IS). The mixture was vortexed for 10 min and was then centrifuged at 12,000 rpm, 4 °C for 10 min. The supernatant was filtered through a […] PVDF membrane (Chrom Tech) and transferred into a glass insert in a vial before LC‑MS/MS analysis.
(§2) The clinical pharmacokinetic study was designed as an open-labeled, with a single oral dosing, and conducted under a fasting condition. Four healthy subjects were recruited according to the following inclusion criteria: 18—55 years old with a body mass index (BMI) of 18–30 kg/m^2. Study participants were identified as healthy based on laboratory testing and physical examinations. The participants received 3 capsules containing A. paniculata extract (calculated as 60 mg of andrographolide/dose) before breakfast with 240 mL of drinking water. Blood samples, in EDTA tubes, were taken after oral administration at 0, 10, 20, 30, 45 min, and 1, 1.5, 2, 4, 6, 8, 10, 12, 24 h post dose. All blood samples were then centrifuged at 4000 ± 100 rpm, 4 °C for 5 min. Plasma was pipetted and stored in cryotubes at − 80 °C until further analysis. Urine samples were collected during 0–4, 4–8, 8–12, 12–24, 24–32, 32–40 and 40–48 h after dosing and were then kept at − 80 °C before sample extraction.
(§3) Finally, the hydrolysis of glucuronide metabolites in the pharmacokinetic study was performed according to the following process: 50 µL of plasma or urine sample was incubated for 30 min with 50 µL of 1000 U/mL β-glucuronidase in phosphate buffer pH 6.8 (composed of 0.1 M sodium phosphate monobasic and 0.1 M sodium phosphate dibasic) at 37 °C. For the hydrolysis of sulfatase, 50 µL of 100 units/mL of sulfatase in an acetate buffer at pH 5.0 (composed of 0.1 M acetic acid and 0.1 M sodium acetate) was added into 50 µL of sample; the mixture was then incubated at 37 °C for 2 h. The reaction was stopped in all hydrolysis samples with 150 µL of cold methanol, and then protein precipitation was performed prior to LC–MS/MS analysis. However, due to unavailable standard of the conjugated forms (AP-glucuronide and […]). The quantitative analysis of conjugated metabolites was determined after the hydrolysis reaction by enzymatic digestion, and the free form was analyzed without hydrolysis. The conjugated standards of AP-glucuronide or AP-sulfate should be synthesized for determining the exact amount of the glucuronide or sulfate.

[3] = Clinical pharmacokinetics in plasma after single oral administration of A. paniculata extract; assay type: in vivo, human; details: for Cmax / AUC(0-t) / Vd/F / Tmax / half-life: human, parent compound in plasma, single oral dose of extract (60 mg andrographolide); for Cmax: healthy subjects n = 4; for Cmax / AUC(0-t) / Vd/F: mean ± SD; for AUC(0-t) / Vd/F / Tmax / half-life: n = 4; for Tmax / half-life: median
Description: as §1, §2
Pharmacokinetic parameters were determined by non-compartmental analysis using PK solutions software, version 2.0 (Summit Research Services). The maximum concentration of four targeted compounds (Cmax) and the time to reach maximum concentration (Tmax) were taken directly from the individual plasma concentration versus time profiles. The area under the curve from time zero to the last sampling time (AUC0-t) was estimated using the linear trapezoidal rule. The apparent volume of distribution (Vd/F) and the elimination half-life (t1/2) were determined using non-compartmental analysis.
as §3

[4] = Stability in urine under different storage conditions; assay type: physicochemical, human
Description: (§4) The stability of plasma and urine samples were evaluated at three different QC concentration levels (LQC, MQC and HQC, n = 3 for each level); the conditions were freeze–thaw stability, long-term stability, short-term stability, and post preparative stability in an autosampler. The evaluation of stability under freeze–thaw condition was carried out over five cycles of − 80 °C for at least 12 h of each cycle. Long-term stability was analyzed after storing the samples at − 80 °C. Short-term stability of each analyte, for up to 8 h during processing on the bench at room temperature, was also evaluated. For evaluation of post-preparative stability, the extracted samples were stored at ambient temperature (4 °C) in an autosampler for 24 h. The analyte was considered as a stable sample when the average percentage of accuracy of the QC sample was in the range of 85–115% and the %CV was not over 15%.

[5] = plasma
Description: as §4

[6] = Freeze–thaw stability 5 cycles, 2.50 ng/mL (LQC)
[7] = Freeze–thaw stability 5 cycles, 500.00 ng/mL (MQC)
[8] = Freeze–thaw stability 5 cycles, 900.00 ng/mL (HQC)
[9] = Long term stability 3 months at − 80 °C, 2.50 ng/mL (LQC)
[10] = Long term stability 3 months at − 80 °C, 500.00 ng/mL (MQC)
[11] = Long term stability 3 months at − 80 °C, 900.00 ng/mL (HQC)
[12] = Post preparative stability 24 h at autosampler, 2.50 ng/mL (LQC)
[13] = Post preparative stability 24 h at autosampler, 500.00 ng/mL (MQC)
[14] = Post preparative stability 24 h at autosampler, 900.00 ng/mL (HQC)
[15] = Short term stability 8 h at room temperature, 2.50 ng/mL (LQC)
[16] = Short term stability 8 h at room temperature, 500.00 ng/mL (MQC)
[17] = Short term stability 8 h at room temperature, 900.00 ng/mL (HQC)

Compound: 14-Deoxy-11,12-didehydroandrographolide glucuronide [M2]
- Metabolic Pathway [1]: Glucuronidation

Compound: 14-Deoxyandrographolide glucuronide [M3]
- Metabolic Pathway [1]: Glucuronidation

- Conjugated metabolites in the urine [2]: negligible
- Route of excretion [2]: primarily excreted renally
- Cmax [3]: 22.4 ± 5.87 ng/mL
- AUC(0-t) [3]: 44.1 ± 7.48 ng·h/mL
- Vd/F [3]: 0.65 ± 0.13 L/kg
- Tmax [3]: 90 min
- half-life [3]: 13.2 min
- Amount detected in plasma ([3]; parent compound, single oral dose of extract): only very small amounts
- Conjugated metabolites in plasma ([3]; single oral dose of extract): negligible
- %Accuracy [4, 6]: 93.80%
- Measured concentration [4, 6]: 2.35 ± 0.08 ng/mL
- %Accuracy [4, 7]: 92.94%
- Measured concentration [4, 7]: 464.68 ± 10.80 ng/mL
- %Accuracy [4, 8]: 101.12%
- Measured concentration [4, 8]: 910.07 ± 23.86 ng/mL
- %Accuracy [4, 9]: 93.48%
- Measured concentration [4, 9]: 2.34 ± 0.16 ng/mL
- %Accuracy [4, 10]: 89.13%
- Measured concentration [4, 10]: 445.65 ± 10.92 ng/mL
- %Accuracy [4, 11]: 94.77%
- Measured concentration [4, 11]: 852.94 ± 7.53 ng/mL
- %Accuracy [4, 12]: 96.03%
- Measured concentration [4, 12]: 2.40 ± 0.15 ng/mL
- %Accuracy [4, 13]: 89.94%
- Measured concentration [4, 13]: 449.68 ± 2.36 ng/mL
- %Accuracy [4, 14]: 101.81%
- Measured concentration [4, 14]: 916.25 ± 29.10 ng/mL
- %Accuracy [4, 15]: 97.15%
- Measured concentration [4, 15]: 2.43 ± 0.07 ng/mL
- Measured concentration [4, 16]: 461.15 ± 18.24 ng/mL
- %Accuracy [4, 17]: 102.82%
- Measured concentration [4, 17]: 925.37 ± 32.74 ng/mL
- %Accuracy [5, 6]: 99.77%
- Measured concentration [5, 6]: 2.49 ± 0.14 ng/mL
- %Accuracy [5, 7]: 94.01%
- Measured concentration [5, 7]: 470.07 ± 13.89 ng/mL
- %Accuracy [5, 8]: 100.73%
- Measured concentration [5, 8]: 906.60 ± 9.37 ng/mL
- %Accuracy [5, 9]: 93.19%
- Measured concentration [5, 9]: 2.33 ± 0.12 ng/mL
- %Accuracy [5, 10]: 94.65%
- Measured concentration [5, 10]: 473.25 ± 26.27 ng/mL
- %Accuracy [5, 11]: 98.12%
- Measured concentration [5, 11]: 883.06 ± 16.19 ng/mL
- %Accuracy [5, 12]: 102.61%
- Measured concentration [5, 12]: 2.57 ± 0.12 ng/mL
- %Accuracy [5, 13]: 97.12%
- Measured concentration [5, 13]: 485.59 ± 17.11 ng/mL
- %Accuracy [5, 14]: 98.43%
- Measured concentration [5, 14]: 885.84 ± 17.63 ng/mL
- %Accuracy [5, 15]: 98.11%
- Measured concentration [5, 15]: 2.45 ± 0.19 ng/mL
- %Accuracy [5, 16]: 94.85%
- Measured concentration [5, 16]: 474.29 ± 22.98 ng/mL
- %Accuracy [5, 17]: 98.96%
- Measured concentration [5, 17]: 890.60 ± 51.25 ng/mL
Compound: C=C1CC[C@@H]2[C@](C)(CO[C@@H]3O[C@H](CO)[C@@H](O)[C@H](O)[C@H]3O)CCC[C@@]2(C)[C@@H]1CCC1=CCOC1=O [AP4, neoandrographolide]

- Route of excretion [2]: primarily excreted renally
- Cmax [3]: 6.33 ± 1.18 ng/mL
- AUC(0-t) [3]: 10.2 ± 2.9 ng·h/mL
- Vd/F [3]: 1.93 ± 1.03 L/kg
- Tmax [3]: 90 min
- half-life [3]: 13.8 min
- AUC of both conjugated metabolites compared to the respective parent compounds ([3]; plasma, single oral dose of extract): greater
- %Accuracy [4, 6]: 95.48%
- Measured concentration [4, 6]: 2.39 ± 0.18 ng/mL
- %Accuracy [4, 7]: 94.03%
- Measured concentration [4, 7]: 470.16 ± 19.65 ng/mL
- %Accuracy [4, 8]: 102.77%
- Measured concentration [4, 8]: 924.91 ± 7.49 ng/mL
- %Accuracy [4, 9]: 93.89%
- Measured concentration [4, 9]: 2.35 ± 0.07 ng/mL
- %Accuracy [4, 10]: 90.88%
- Measured concentration [4, 10]: 454.38 ± 21.26 ng/mL
- %Accuracy [4, 11]: 99.27%
- Measured concentration [4, 11]: 893.39 ± 24.76 ng/mL
- %Accuracy [4, 12]: 96.20%
- Measured concentration [4, 12]: 2.41 ± 0.13 ng/mL
- %Accuracy [4, 13]: 93.94%
- Measured concentration [4, 13]: 469.68 ± 35.58 ng/mL
- %Accuracy [4, 14]: 101.31%
- Measured concentration [4, 14]: 911.80 ± 10.76 ng/mL
- %Accuracy [4, 15]: 95.56%
- Measured concentration [4, 15]: 2.39 ± 0.15 ng/mL
- %Accuracy [4, 16]: 91.90%
- Measured concentration [4, 16]: 459.52 ± 16.67 ng/mL
- %Accuracy [4, 17]: 102.42%
- Measured concentration [4, 17]: 921.74 ± 21.18 ng/mL
- %Accuracy [5, 6]: 96.87%
- Measured concentration [5, 6]: 2.42 ± 0.04 ng/mL
- %Accuracy [5, 7]: 94.79%
- Measured concentration [5, 7]: 473.93 ± 25.58 ng/mL
- %Accuracy [5, 8]: 98.93%
- Measured concentration [5, 8]: 890.41 ± 25.49 ng/mL
- %Accuracy [5, 9]: 88.89%
- Measured concentration [5, 9]: 2.22 ± 0.09 ng/mL
- %Accuracy [5, 10]: 92.43%
- Measured concentration [5, 10]: 462.16 ± 14.34 ng/mL
- %Accuracy [5, 11]: 98.92%
- Measured concentration [5, 11]: 890.25 ± 20.07 ng/mL
- %Accuracy [5, 12]: 100.85%
- Measured concentration [5, 12]: 2.52 ± 0.08 ng/mL
- %Accuracy [5, 13]: 96.39%
- Measured concentration [5, 13]: 481.96 ± 2.97 ng/mL
- %Accuracy [5, 14]: 101.27%
- Measured concentration [5, 14]: 911.38 ± 18.09 ng/mL
- %Accuracy [5, 15]: 101.65%
- Measured concentration [5, 15]: 2.54 ± 0.21 ng/mL
- %Accuracy [5, 16]: 90.47%
- Measured concentration [5, 16]: 452.37 ± 10.16 ng/mL
- %Accuracy [5, 17]: 100.71%
- Measured concentration [5, 17]: 906.41 ± 47.83 ng/mL
Compound: C=C1CC[C@@H]2[C@](C)(CO)[C@H](O)CC[C@@]2(C)[C@@H]1CCC1=CCOC1=O [AP6, 14-deoxyandrographolide]

Compound: Andrographolide glucuronide [M1]
- Metabolic Pathway [1]: Glucuronidation

Compound: Andrographolide sulfate [M4]
- Metabolic Pathway [1]: Sulfation*
